Test results taken from patent US20070105215A1, “METHOD OF CULTURING STEM CELLS USING ABC TRANSPORTERS” (SAMSUNG ELECTRONICS CO., LTD., priority 2005, published 2007).
Read-outs that look alike come from different tables or passages of the source.

Experiments:
[1] = Cell activity/viability of K562 cells treated with Mitoxantrone (Sulforhodamine B kit), single culture; type: cell-based; conditions: human, K562 cells (no ABC transporter); K562 single culture, Mitoxantrone 0.4 M, incubated for 96 hours
Procedure: (§1) This was performed in the same manner as in Example 1, except that K562 (chronic myelogenous leukemia) cells having no ABC transporter were incubated in place of the A549 cells.
(§2) This was performed in the same manner as in Example 1, except that K562 cells having no ABC transporter were used in place of the A549 cells.

[2] = system: K562 (chronic myelogenous leukemia) cells having no ABC transporter; assay: as above; type: cell-based
Procedure: as §1, §2

[3] = Coculture of A549 and K562 cells treated with Mitoxantrone, viability of A549 cells; type: cell-based; conditions: human, A549 cells cocultured with K562 cells, A549 co-cultured with K562, Mitoxantrone 0.4 M
[4] = Coculture of A549 and K562 cells treated with Mitoxantrone, viability of K562 cells; type: cell-based; conditions: human, K562 cells cocultured with A549 cells, K562 coculture with A549, Mitoxantrone 0.4 M
[5] = system: A549 (human lug carcinoma cell ATCC no.CCL-185), having ABC transporters of the ABCG2 family

Compound: O=C1c2c(O)ccc(O)c2C(=O)c2c(NCCNCCO)ccc(NCCNCCO)c21 [Mitoxantrone]
- viability at 96 h, 0.4 M [1]: 28%
- cell activity ([2]; K562, Mitoxantrone concentration of 0.1M (FIG. 6)): about 60%
- cell activity ([2]; K562, Mitoxantrone concentration of 0.2M (FIG. 6)): almost zero
- viability at 96 h, 0.4 M [3]: 92%
- viability at 96 h, 0.4 M [4]: 17%
- cell activity ([5]; A549, Mitoxantrone concentration of 0.4M (FIG. 6)): 98%
- cell activity ([5]; A549, Mitoxantrone concentration of 1.0M (FIG. 6)): 86%
- cell activity ([5]; A549, Mitoxantrone concentration of 2.6 (FIG. 6)): 68%
